Data published in patent US20080081075A1, “Multifunctional mixed micelle of graft and block copolymers and preparation thereof” (National Tsing Hua University, priority 2006, published 2008).

Assays:
[1] = test system: HeLa cells; test: Cytotoxicity evaluation, MTT assay; assay type: cell-based; settings: 48 h
Procedure: The cytotoxicity of each sample was determined by measuring the inhibition of cell growth using a tetrazolium dye (MTT) assay. […] HeLa cells (5×10^3 cell/mL) harvested in a logarithmic growth phase were seeded on 96 wells in Dulbecco's modified Eagle's medium (DMEM) with 10% fetal bovine serum (FBS) in a humidified atmosphere of 5% CO2 at 37° C. After the HeLa cells had been incubated in a logarithmic growth phase, samples with various concentrations of Dox were added for 48 h of co-culturing. At the end of the experiment, the MTT assay was conducted and the percentage of cell viability was calculated. Additionally, material cytotoxicities were measured using HeLa cells (5×10^3 cell/mL). The experimental process was identical to that described above.
HeLa cells (5×10^3 cell/ml) were used to study the cytotoxicity of free Dox and Dox-loaded mixed micelle by measuring the inhibition of cell growth using a tetrazolium dye (MTT) assay.
The Dox-loaded multifunctional micelles and free Dox were tested for in vitro cytotoxicity using a tetrazolium dye (MTT) method. The MTT-based cytotoxic activities of the Dox-loaded multifunctional micelles and free DOX were compared after 24 h and 72 h incubation with HeLa cells.

[2] = test system: HepG2 (human hepatocellular carcinoma) cells; test: Internalization evaluation by confocal laser scanning microscopy with LysoTracker; assay type: cell-based; settings: Dox ca. 10 μg/mL
Procedure: Internalization Evaluation. Accumulated Dox in HepG2 cells was localized using a Carl Zeiss LSM5 PASCAL confocal laser scanning microscope (CLSM). The […] cells were seeded on coverslides for 24 h and then treated with free Dox or Dox-loaded mixed micelles. Dox-loaded mixed micelles were washed with PBS twice to remove untrapped Dox before use. The concentration of Dox was ca. 10 μg/mL. After an interval, the cells were washed twice with PBS; then, the LysoTracker was added in a culture medium without FBS. After 30 min of incubation, the cells were washed with PBS and mounted on a slide with 4 wt % paraformaldehyde for CLSM observation. Fluorescence observation was carried out with a confocal microscope at 488 nm for excitation and an LP (long-pass) filter of 590 nm for Dox detection. […]
Confocal laser scanning microscopy (CLSM) was used to observe the intracellular drug release of mixed micelles. Confocal images were taken to observe the time-dependent fluorescence intensity of LysoTracker and Dox after mixed micelles were incubated with HepG2 (human hepatocellular carcinoma) cells. The red fluorescence from Dox and the green fluorescence from LysoTracker were detected in the intracellular compartment. […] Fluorescence from LysoTracker occurred in both the nucleus and cytoplasm because these are acidified by doxorubicin hydrochloride. […]

## COc1cccc2c1C(=O)c1c(O)c3c(c(O)c1C2=O)C[C@@](O)(C(=O)CO)C[C@@H]3O[C@H]1C[C@H](N)[C@H](O)[C@H](C)O1 [free Dox, doxorubicin]
[1]
  activity compared with Dox-loaded mixed micelles and Dox-loaded Graft I micelles: more potent activity
[2]; 1 h incubation
  localization of Dox fluorescence: concentrated in the nucleus
[2]; 8 h incubation
  localization of Dox fluorescence: concentrated in the nucleus
